A short description of series [1]: Lipophilicity logD7.4 by HPLC. The conditions noted are these: pH 7.4, HPLC method.
For another series, the target named is T1, ovine COX-1 (Ovis aries, UniProt P05979).
T1 construct: purchased Cayman Chemical Company
T1 sequence (P05979 25-600): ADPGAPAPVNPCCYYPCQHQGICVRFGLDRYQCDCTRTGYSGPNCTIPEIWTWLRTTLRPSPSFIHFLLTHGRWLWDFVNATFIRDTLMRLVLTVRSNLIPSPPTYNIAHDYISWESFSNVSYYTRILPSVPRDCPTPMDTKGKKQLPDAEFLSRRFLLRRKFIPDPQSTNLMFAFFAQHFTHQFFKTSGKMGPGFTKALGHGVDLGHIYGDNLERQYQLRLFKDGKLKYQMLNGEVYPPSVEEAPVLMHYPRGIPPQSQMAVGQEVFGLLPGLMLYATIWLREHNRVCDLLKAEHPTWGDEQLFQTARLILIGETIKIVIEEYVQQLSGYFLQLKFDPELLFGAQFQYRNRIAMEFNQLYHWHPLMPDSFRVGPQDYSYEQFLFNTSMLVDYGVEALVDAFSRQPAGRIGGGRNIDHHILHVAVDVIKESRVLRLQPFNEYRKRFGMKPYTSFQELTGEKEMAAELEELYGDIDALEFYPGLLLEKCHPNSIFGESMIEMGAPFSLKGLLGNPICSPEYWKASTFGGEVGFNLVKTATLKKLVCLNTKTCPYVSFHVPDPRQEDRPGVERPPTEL
Kind of series: COX Fluorescent Inhibitor Screening Assay, COX-1. It counts as biochemical. To be noted: in duplicate. Here is the method: COX inhibition activity against ovine COX-1 and human COX-2 was determined using the fluorescence-based COX assay COX Fluorescent Inhibitor Screening Assay Kit (Cayman Chemical Company, Ann Arbor, MI, USA) according to the manufacturer’s instructions as previously reported by us. All compounds were screened at a concentration of 100 µM in duplicate.

Series [2] has as its system HT-29 colorectal carcinoma. Kind of series: Cell viability, MTT assay, HT-29. It counts as cell-based, human. To be noted: 72 h, mean ± SD. Here is the method: (§1) Five human cell lines (A375 melanoma, A549 lung adenocarcinoma, HCT116 and HT29 colorectal carcinoma, MDA-MB-231 triple-negative breast adenocarcinoma) were used to study the antitumor effects of the di-tert-butylphenols and their respective carborane analogs. All selected cell lines were derived from inflammation-associated tumors.
(§2) After the incubation period, the supernatant was discarded from the wells, and the cells were washed two times with 200 µL of PBS. Next, MTT solution at a final concentration of 0.5 mg/mL was added and incubated at 37 °C until purple formazan crystals were formed (30 min to one hour). After incubation, the dye was discarded. In order to dissolve the formed formazan crystals DMSO was added, and the absorbance was measured at λmax = 540 nm, with the reference/background wavelength of 670 nm. All results are expressed as a percentage of the control value which was arbitrary set to 100%. After 72 h treatment, cells were washed with 200 µL of PBS and fixed with 4% paraformaldehyde (PFA) for 15 min at room temperature (RT). Next, cells were stained with 1% CV solution. After 20 min, cells were washed in tap water and dried on air. Dye was dissolved in 33% acetic acid and the absorbance was measured at λmax = 540 nm, with the reference/background wavelength of 670 nm. Results were expressed as a percentage of the control value which was arbitrary set to 100%.
(§3) 1. General methods, materials, and procedures
(§4) 1.1.1. Reagents and cells
(§5) Reagents and cells were obtained from following manufacturers: Capricorn Scientific GmbH (Hessen, Germany) – Culture medium RPMI-1640, Dulbecco's Modified Eagle Medium (DMEM), and fetal bovine serum (FBS). Serva (Heidelberg, Germany) – Paraformaldehyde (PFA). Sigma (St. Louis, MO, USA) – Ethylenediaminetetraacetic acid (EDTA), Dimethyl sulfoxide (DMSO), chloroquine, CV, Triton X-100, RNase, PI, PBS, 3-MA, CFSE, and fluorescent mounting medium. AppliChem (MO, USA) –MTT. Thermo Fisher Scientific (Waltham, MA, USA) – DHR. R&D Systems (Minneapolis, MN, USA) – ApoStat. BD (Pharmingen, San Diego, SAD) – Annexin V-FITC (AnnV). Biological Industries (Cromwell, CT, USA) – Penicillin Streptomycin solution. American Type Culture Collection (ATCC, Manassas, Virginia, USA) – Human lung carcinoma (A549), human breast adenocarcinoma (MDA-MB-231), human colorectal ade-nocarcinoma (HT-29), human colorectal carcinoma (HCT116) and human melanoma (A375).
(§6) Cell lines (A375, HCT116, HT-29 and MDA-MB-231) were cultivated in HEPES-buffered RPMI-1640 medium while A549 cell line was cultivated in Dulbecco's Modified Eagle Medium (DMEM) which were previously supplemented with 10% heat-inactivated FBS, penicillin (100 units/mL), and streptomycin (100 μg/mL). All cells were kept at 37 °C in a humidified atmosphere with 5% CO2. For viability determi-nation cells were seeded at following densities in 96-well plates: 4 x 10^3 cells/well (A375, HT-29 and MDA-MB-231), 5 x 10^3 cells/well (HCT116), and 3 x 10^3 cells/well (A549). […]
(§7) Afterwards, cells were washed with phosphate-buffered saline (PBS) and stained with AnnV (15 μg/mL) and PI (15 μg/mL). After 15 min incubation at room temperature (RT) protected from light the cells were resuspended in AnnV-binding buffer and analysed using flow cytom-etry. HCT116 cells were incubated with pan-caspase inhibitor Apostat for 30 min at 37 °C to determine whether detected apoptosis was mediated by caspase activation. Afterwards, cells were washed with PBS and analyzed using flow cytometry. HCT116 cells were stained with 1 µg/mL of AO solution for 15 min at 37 °C to detect the presence of autophagic cell death. Afterwards cells were washed with PBS, resuspended and analyzed by flow cytometry (CyFlow® Space Partec using the PartecFloMax® software

In a further series the test system is A549 lung adenocarcinoma. Kind of series: Cell viability, MTT assay, A549. Type of series: cell-based, human. To be noted: 72 h, mean ± SD. As for the experimental part:
as §1, §2, §3, §4, §5, §6, §7
(Formazan colour is commonly taken as a measure of viable cells.)

The % Inhibition is how much of the control response was suppressed. As a reminder, the IC50 is the concentration needed to halve the response being measured. In the case of “(3E)-1-Hydroxy-12-(methylene-[2′-ethylisothiazolidine-1′,1′-dioxide])-1,12-dicarba-closo-dodecaborane(12) [Compound S-2474-Cb]”, in series [1], the “logD7.4, HPLC” value was 1.88. Moreover, the “% Inhibition at 100 µM COX-1” value at ovine COX-1 is reported as “n.i. (n.i. = no inhibition (%inhibition below 5%))”. In addition, the IC50 worked out at 81.8 ± 6.1 µM in series [2] and 122 ± 10.4 µM with A549 lung adenocarcinoma.

“(3E)-1-Hydroxy-12-(methylene-[1′-methoxypyrrolidine-2′-one])-1,12-dicarba-closo-dodecaborane(12) [Compound E-5110-Cb]”: the “logD7.4, HPLC” value in series [1] is 1.50. Moreover, at ovine COX-1, the “% Inhibition at 100 µM COX-1” value was “n.i. (n.i. = no inhibition (%inhibition below 5%))”. Further, the values for the IC50 (in series [2]; in the series with A549 lung adenocarcinoma) were 120 ± 9.7 µM and 177 ± 14.5 µM, respectively.

Turning to “1-Hydroxy-12-(thiophen-2′-carbonyl)-1,12-dicarba-closo-dodecaborane(12) [Compound R-830-Cb]”, the “logD7.4, HPLC” value in series [1] was determined as 2.37. For the same substance, on ovine COX-1, the “% Inhibition at 100 µM COX-1” value worked out at 18%. Also, the IC50 was determined as 65.6 ± 5.3 µM in series [2] and 66.5 ± 1.7 µM in the series on A549 lung adenocarcinoma.

“(3E)-1-Hydroxy-12-(methylene-[dihydrofurane-2′(3H)-one])-1,12-dicarba-closo-dodecaborane(12) [KME-4-Cb]”: the “logD7.4, HPLC” value in series [1] worked out at 1.87. Moreover, the “% Inhibition at 100 µM COX-1” value on ovine COX-1 came out at 26%. For the same substance, the IC50 in series [2] was found to be 139 ± 5.4 µM; with A549 lung adenocarcinoma it was 120 ± 7 µM.

(Values after article PMC10254233, “Synthesis and In Vitro Biological Evaluation of p-Carborane-Based Di-tert-butylphenol Analogs” (Molecules, 2023).)
